Results taken from patent publication EP0063827A1, “1-Isopropyl- and 1-isobutyl-3,7-dimethyl xanthine as pharmaceutical preparations” (SOCIETE DES PRODUITS NESTLE S.A., priority 1980, dated 1980).

Assays:
[1] = test system: anxiété induite par un nouvel environnement; assay: Behavioural study in rats: locomotion and rearing counts under anxiety induced by a new environment; assay type: in vivo, rat; details: for profil d'action: conclusion in words from the behavioural study in the rat; for d/r: ratio of slope of déplacements to slope of redressements, specificity of effect on anxiety
From the text: La 1-isopropyl- et la l-isobutyl-3,7-diméthylxan- thine ont fait l'objet d'une étude comportementale chez le rat en fonction de l'anxiété induite par un nouvel environnement. Chez le rat, l'anxiété se manifeste par des redressements de celui-ci sur ses deux pattes postérieures, tandis que ses déplacements sont l'expression de l'activité locomotrice.
• - L'induction d'un état d'anxiété s'effectue par confrontation de rats mâles "naïfs" Sprague-Dawley (Iffa-Credo, France), pesant 260 à 300 g avec un nouvel environnement constitué par des cages en Macrolon ^0 (30 x 25 cm) qui se situent dans une chambre insonorisée et climatisée (22°C et 50 % d'humidité relative). • - La détermination du nombre de redressements et de déplacements a lieu de façon automatique à partir de cellules photo-électriques à infrarouge qui n'émettent des impulsions électriques que pour les mouvements francs de l'animal et pas pour les mouvements statiques comme ceux de la tête et de la queue et ceci pour des raisons de reproductibilité. Ces cellules photo-électriques quadrillent les cages à deux niveaux différents de façon à distinguer les redressements des déplacements. Le nombre de redressements et de déplacements est compté par les deux séries de cellules photo-électriques, mémorisé et restitué sur une imprimante selon un programme préétabli. • - On administre oralement par intubation oesophagienne le composé testé en solution, l'administration de référence étant constituée par 6 ml/kg d'eau distillée, et ceci 30 minutes avant de placer les animaux dans les cages. Le nombre de redressements et de déplacements est déterminé durant les 15 minutes qui suivent la mise en cage, par rapport à l'effet engendré par l'administration de référence.
• - Le tableau I ci-après montre l'évolution des effets des substances testées sur le nombre de déplacements et de redressements en fonction des doses administrées exprimé en pourcentage des déplacements et redressements comptés pour l'administration de référence. [formula] • - A partir des données précédentes, on établit les droites de régression pour les déplacements et les redressements selon la méthode décrite par Saubrié, P.J. Pharmacol, (Paris) 2 (1971) 457-472, l'équation de ces droites de régression correspondant à la moyenne exprimée en % des performances des références en fonction produit par 10 du logarithme des doses (on ne considère que les doses ne diminuant pas l'activité motrice de plus de 75 %). • - La comparaison des pentes des droites de régression correspondant aux déplacements et aux redressements est effectuée en portant sur un système d'axes orthonormés en abscisse (d) la valeur de la pente de la droite des déplacements et en ordonnée (r) celle de la pente des redressements. Ces valeurs mettent en évidence la relation effet-dose pour une substance donnée. • - On détermine également le rapport de la pente des déplacements sur celle des redressements qui permet de juger de la spécificité d'effet d'une substance donnée sur l'anxiété.
La détermination de l'effet d'une substance est donnée par sa localisation par rapport à la droite d = r de pente = 1. Les substances situées sur cette droite ont un effet semblable sur les redressements et les déplacements. Les substances pour lesquelles la valeur absolue de la pente des redressements est significativement supérieure à celle des déplacements ont une action spécifique sur l'anxiété.

[2] = test system: enflement de l'oreille chez la souris; assay: Delayed cutaneous hypersensitivity test (oxazolone), inhibition of ear swelling; assay type: in vivo; details: for % d'inhibition de l'enflement d'oreille: dose 150 mg/kg de poids corporel, ear thickness 24 h after challenge, relative to control
Method: L'activité immunosuppressante a été comparée à celle du cyclophosphamide, médicament immunosuppressant connu, comme inhibiteur de l'enflement de l'oreille chez la souris en réponse à l'agression antigénique dans un test d'hypersensibilisation cutanée retard à la dose de 150 mg/kg.
Le test a été conduit par exemple comme décrit par G.L. Asherson et W. Ptak dans Immunology 15, 405 (1968). Des souris ont été immunisées par application cutanée abdominale de 0,1 ml d'une solution à 3 % d'oxazolone. 7 jours après la sensibilisation, les animaux ont été provoqués par peinture de la même solution sur la peau de l'oreille. On a administré simultanément soit le composé ci-dessus soit le cyclophosphamide à une partie des animaux, les animaux restants servant de contrôle. 24 heures après l'agression, on a mesuré l'épaisseur de l'oreille. L'activité immunosuppressante exprimée en % de l'inhibition de l'enflement de l'oreille par rapport au contrôle est indiquée ci-après : […]

CC(C)Cn1c(=O)c2c(ncn2C)n(C)c1=O [1-isobutyl-3,7-diméthylxanthine]
profil d'action [1]: sédatif non spécifique | profil d'action ([1]; listed as l-isobutyl-3,7-diméthylxanthine): effet sédatif comparable à celui d'un neuroleptique type

CC(C)n1c(=O)c2c(ncn2C)n(C)c1=O [1-isopropyl-3,7-diméthylxanthine]
d/r [1]: < 1

CNC1=Nc2ccc(Cl)cc2C(c2ccccc2)=[N+]([O-])C1 [chlordiazépoxide, reference compound]
d/r [1]: < 1

O=P1(N(CCCl)CCCl)NCCCO1 (stereo not drawn) [cyclophosphamide, reference compound]
% d'inhibition de l'enflement d'oreille [2]: 73%

Cn1cnc2c1c(=O)n(Cn1c(=O)c3c(ncn3C)n(C)c1=O)c(=O)n2C [di(3,7-diméthylxanthin-1-yl)méthane]
% d'inhibition de l'enflement d'oreille [2]: 55% | activité immunosuppressante ([2]; result in words): a montré une activité immunosuppressante

Cn1c(=O)c2[nH]cnc2n(C)c1=O [théophylline, reference compound]
profil d'action [1]: psychostimulante et n'a pas d'effet sur l'anxiété | d/r [1]: > 1
